Patent publication US10357036B2, “Compounds for controlling arthropods” (priority 2015, dated 2019)
“And” between values parts separate entries of the source, which are not always exact repeats. Identical values can stand only once.

Legend:
Musca domestica = Musca domestica test; format: in vivo; conditions: 100 ppm; adult houseflies; after 2 days
Experimental: (§1) • Solvent: dimethyl sulfoxide
To produce a suitable active ingredient formulation, 10 mg of active ingredient are mixed with 0.5 ml of dimethyl sulfoxide, and the concentrate is diluted with water to the desired concentration.
Vessels containing a sponge treated with sugar solution and the active ingredient formulation of the desired concentration are populated with 10 adult houseflies (Musca domestica).

Ctenocephalides felis [1] = test: Ctenocephalides felis oral test; format: in vivo; conditions: 100 ppm in citrated cattle blood; after 2 days
Experimental: • Solvent: Dimethyl Sulfoxide
To produce a suitable active ingredient formulation, 10 mg of active ingredient are mixed with 0.5 ml of dimethyl sulfoxide. Dilution with citrated cattle blood gives the desired concentration.
About 20 unfed adult cat fleas (Ctenocephalides fells) are placed into a chamber which is closed at the top and bottom with gauze. A metal cylinder whose bottom end is closed with parafilm is placed onto the chamber. The cylinder contains the blood/active ingredient formulation, which can be imbibed by the fleas through the parafilm membrane.

Spodoptera frugiperda = Spodoptera frugiperda spray test; format: in vivo; conditions: 100 g/ha; after 7 days
Phaedon cochleariae = Phaedon cochleariae spray test; conditions: 100 g/ha; after 7 days
Boophilus microplus = Boophilus microplus injection test; format: in vivo; conditions: 20 μg/animal; assessed after 7 days
Experimental: as §1
1 μl of the active ingredient solution is injected into the abdomen of 5 engorged adult female cattle ticks (Boophilus microplus). The animals are transferred into dishes and kept in a climate-controlled room.

Ctenocephalides felis [2] = test: Ctenocephalides felis in vitro contact test with adult cat fleas; format: in vivo; conditions: application rate 5 μg/cm^2 (=500 g/ha); after 48 h; dead or moribund fleas
Experimental: (§2) For the coating of the test tubes, 9 mg of active ingredient are first dissolved in 1 ml of acetone p.a. and then diluted to the desired concentration with acetone p.a. 250 μl of the solution are distributed homogeneously on the inner walls and the base of a 25 ml glass tube by turning and rocking on an orbital shaker (rocking rotation at 30 rpm for 2 h). With 900 ppm of active ingredient solution and internal surface area 44.7 cm^2, given homogeneous distribution, an area-based dose of 5 μg/cm^2 is achieved.
After the solvent has evaporated off, the tubes are populated with 5-10 adult cat fleas (Ctenocephalides felis), sealed with a perforated plastic lid and incubated in a horizontal position at room temperature and ambient humidity. After 48 h, efficacy is determined. To this end, the tubes are stood upright and the fleas are knocked to the base of the tube. Fleas which remain motionless at the base or move in an uncoordinated manner are considered to be dead or moribund.
100% efficacy means that all the fleas were dead or moribund. 0% efficacy means that no fleas were harmed.

Tetranychus urticae = Tetranychus urticae spray test, OP-resistant (bean leaf discs); format: in vivo; conditions: 100 g/ha; after 6 days
Experimental: After 6 days, the efficacy in % is determined.

Rhipicephalus sanguineus = Rhipicephalus sanguineus in vitro contact test with adult brown dog ticks; format: in vivo; conditions: application rate 5 μg/cm^2 (=500 g/ha); after 48 h; dead or moribund ticks
Experimental: as §2
After the solvent has evaporated off, the tubes are populated with 5-10 adult dog ticks (Rhipicephalus sanguineus), sealed with a perforated plastic lid and incubated in a horizontal position in the dark at room temperature and ambient humidity. After 48 h, efficacy is determined. To this end, the ticks are knocked to the base of the tube and incubated on a hotplate at 45-50° C. for not more than 5 min. Ticks which remain motionless on the base or move in such an uncoordinated manner that they are unable to deliberately avoid the heat by climbing upwards are considered to be dead or moribund.
An efficacy of 100% means that all the ticks were dead or moribund. 0% efficacy means that none of the ticks were harmed.

| Molecule | efficacy (rate of extermination) (Musca domestica) | efficacy (rate of extermination) (Ctenocephalides felis [1]) | efficacy (Spodoptera frugiperda) | efficacy (Phaedon cochleariae) | efficacy (laying of fertile eggs) (Boophilus microplus) | efficacy (Ctenocephalides felis [2]) | efficacy (Tetranychus urticae) | efficacy (Rhipicephalus sanguineus) |
| --- | --- | --- | --- | --- | --- | --- | --- | --- |
| CC(=O)NCc1c(F)ccc(-c2cnn(-c3c(Cl)cc(C(F)(C(F)(F)F)C(F)(F)F)cc3OC(F)F)c2)c1F [Ia-158] | 100% | 100% | 100% | 100% | 100% | 100% | 100% | – |
| CC(=O)NCc1cc(-c2cnn(-c3c(Cl)cc(C(F)(C(F)(F)F)C(F)(F)F)cc3OC(F)(F)F)c2)cnc1Cl [Ia-131] | 100% | 100% | 100% | 100% | 100% | 100% | – | – |
| CSc1cc(C(F)(C(F)(F)F)C(F)(F)F)cc(Cl)c1-n1cc(-c2ccc(F)c(CNC(C)=O)c2)cn1 [Ia-07] | 100% | 100% | 83% | 100% | 100% | 100% | 100% | – |
| CCC(=O)NCc1cc(-c2cnn(-c3c(Cl)cc(C(F)(C(F)(F)F)C(F)(F)F)cc3OC(F)(F)F)c2)ccc1F [Ia-26] | 100% | 100% | 100% | 100% | 100% | – | 90% | 80% |
| CC(=O)NCc1cccc(-c2cnn(-c3c(Cl)cc(C(F)(C(F)(F)F)C(F)(F)F)cc3OC(F)(F)F)c2)c1 [Ia-38] | 100% | 100% | 100% | 100% | 100% | – | – | 80% |
| CC(=O)NCc1cccc(-c2cnn(-c3c(C)cc(C(F)(C(F)(F)F)C(F)(F)F)cc3Cl)c2)c1 [Ia-68] | 100% | 100% | 83% | 100% | 100% | – | 100% | 80% |
| CC(=O)N(C)Cc1cc(-c2cnn(-c3c(Cl)cc(C(F)(C(F)(F)F)C(F)(F)F)cc3Cl)c2)ccc1F [Ia-64] | 100% | 100% | 100% | 100% | 100% | 100% | 100% | – |
| N#Cc1cc(C(F)(C(F)(F)F)C(F)(F)F)cc(Cl)c1-n1cc(-c2ccc(F)c(CNC(=O)C3CC3)c2)cn1 [Ia-107] | 100% | 100% | 100% | 100% | 100% | 100% | 100% | – |
| CC(=O)N(C)Cc1cc(-c2cnn(-c3c(Cl)cc(C(F)(C(F)(F)F)C(F)(F)F)cc3Cl)c2)cnc1Cl [Ia-73] | 100% | 100% | 100% | 100% | 100% | 100% | 100% and 90% | – |
| CCC(=O)NCc1cc(-c2cnn(-c3c(Cl)cc(C(F)(C(F)(F)F)C(F)(F)F)cc3C(F)(F)F)c2)ccc1Cl [Ia-29] | 100% | 100% | 100% | 100% | 100% | – | – | 100% |
| N-(2-chloro-5-{1-[2,6-dichloro-4-(1,1,1,2,3,3,3-heptafluoropropan-2-yl)phenyl]-1H-pyrazol-4-yl}benzyl)-N-methylpropanamide [Ia-22] | – | 100% | – | 100% | 100% | – | 90% | 80% |
| O=C(NCc1cc(-c2cnn(-c3c(Cl)cc(C(F)(C(F)(F)F)C(F)(F)F)cc3OC(F)(F)F)c2)ccc1F)C1CC1 [Ia-40] | 100% | 100% | 100% | 100% | 100% | – | – | 80% |
| CCC(=O)NCc1cccc(-c2cnn(-c3c(Cl)cc(C(F)(C(F)(F)F)C(F)(F)F)cc3C(F)F)c2)c1F [Ia-143] | 100% | 100% | 100% | 100% | 100% | – | – | 80% |
| CCOCN(Cc1cc(-c2cnn(-c3c(Cl)cc(C(F)(C(F)(F)F)C(F)(F)F)cc3Cl)c2)ccc1Cl)C(C)=O [Ia-117] | 100% | 100% | 100% | 100% | 100% | 100% | – | – |
| CCC(=O)NCc1c(F)ccc(-c2cnn(-c3c(Cl)cc(C(F)(C(F)(F)F)C(F)(F)F)cc3OC(F)F)c2)c1F [Ia-157] | 100% | 100% | 100% | 100% | 100% | – | 90% | 100% |
| CCC(=O)N(C)Cc1cc(-c2cnn(-c3c(Cl)cc(C(F)(C(F)(F)F)C(F)(F)F)cc3Cl)c2)ccc1F [Ia-71] | 100% | 100% | 100% | 100% | 100% | 100% | 100% | – |
| C=CCN(Cc1cc(-c2cnn(-c3c(Cl)cc(C(F)(C(F)(F)F)C(F)(F)F)cc3Cl)c2)ccc1Cl)C(C)=O [Ia-113] | 100% | 100% | 100% | 100% | 100% | 100% | 90% | – |
| CC(C)C(=O)NCc1cc(-c2cnn(-c3c(Cl)cc(C(F)(C(F)(F)F)C(F)(F)F)cc3C(F)F)c2)ccc1F [Ia-60] | 100% | 100% | 100% | 100% | 100% | 100% | 100% | – |
| Cc1cc(C(F)(C(F)(F)F)C(F)(F)F)cc(C)c1-n1cc(-c2ccc(F)c(CNC(=O)C3CC3)c2)cn1 [Ia-04] | 100% | 100% | 100% | 100% | 100% | – | 100% | 100% |
| CCC(=O)NCc1c(F)ccc(-c2cnn(-c3c(Cl)cc(C(F)(C(F)(F)F)C(F)(F)F)cc3C(F)(F)F)c2)c1F [Ia-146] | 100% | 100% | 100% | 100% | 100% | – | – | 100% |
| CC(=O)NCc1cc(-c2cnn(-c3c(Cl)cc(C(F)(C(F)(F)F)C(F)(F)F)cc3Cl)c2)cnc1Cl [Ia-130] | 100% | 100% | 100% | 100% | 100% | 100% | 90% | – |
| O=C(CC(F)(F)F)NCc1cc(-c2cnn(-c3c(Cl)cc(C(F)(C(F)(F)F)C(F)(F)F)cc3OC(F)(F)F)c2)ccc1F [Ia-19] | 100% | 100% | 100% | 100% | 100% | – | 90% | 100% |
